Laboratory results reported in ChEMBL document CHEMBL1201862, “PubChem BioAssay data set” (2004).
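The compound was tested at five concentrations on cells cultured in 96-well plates, with a 48-hour exposure period. GI50: concentration for 50% inhibition of growth.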 Calls of active or inactive are those of the source. Rule as the data show it: active = GI50 up to about 1.1 µM and inactive = higher.

Assays:
Test in all cases: NCI anticancer screen, dose series, 48 h
[1] = system: CAKI-1
[2] = system: CCRF-CEM
[3] = system: EKVX
[4] = system: HCT-15
[5] = system: HOP-62
[6] = system: HOP-92
[7] = system: Hs-578T
[8] = system: MCF7
[9] = system: MDA-N
[10] = system: Malme-3M
[11] = system: NCI-H460
[12] = system: SF-539
[13] = system: SN12C
[14] = system: SNB-19
[15] = system: SR
[16] = system: SW-620
[17] = system: UO-31
[18] = system: ACHN
[19] = system: HT-29
[20] = system: SK-MEL-5

SMILES	GI50 [1]	GI50 [2]	GI50 [3]	GI50 [4]	GI50 [5]	GI50 [6]	GI50 [7]	GI50 [8]	GI50 [9]	GI50 [10]	GI50 [11]	GI50 [12]	GI50 [13]	GI50 [14]	GI50 [15]	GI50 [16]	GI50 [17]	GI50 [18]	GI50 [19]	GI50 [20]
CCC(C)SC1SCC2C(=O)N(C)C3(CC3C)C(=O)OCC(NC(=O)c3nc4ccccc4cc3O)C(=O)NC(C)C(=O)N(C)C1C(=O)N(C)C1(CC1C)C(=O)OCC(NC(=O)c1nc3ccccc3cc1O)C(=O)NC(C)C(=O)N2C (centres undefined)	0.01 µM (active)	8.73e-05 µM (active)	0.00038 µM (active)	0.00204 µM	5.64e-05 µM (active)	5.87e-05 µM (active)	5.24e-05 µM (active)	1.2e-05 µM (active)	4.71e-05 µM (active)	4.12e-05 µM (active)	4.82e-05 µM (active)	4.79e-05 µM (active)	4.99e-05 µM (active)	4.79e-05 µM (active)	2.79e-05 µM (active)	4.78e-05 µM (active)	0.00275 µM (active)			
CCOC(=O)C(C(=O)OCC)=C1NC2(c3ccccc3Nc3ccc(C)cc32)C(C#N)S1 (centres undefined)	11.8 µM (inactive)	4.27 µM (inactive)	8.83 µM (inactive)	6 µM	11.4 µM (inactive)	4.26 µM (inactive)	14.2 µM (inactive)	3.05 µM (inactive)	10.6 µM (inactive)	15 µM (inactive)	3.27 µM (inactive)	3.72 µM (inactive)	3.24 µM (inactive)	6.58 µM (inactive)	2.44 µM (inactive)	6.59 µM (inactive)	6.28 µM (inactive)	3.47 µM (inactive)	3.56 µM (inactive)	7.73 µM (inactive)
CCN(CC)CCNc1ccc([N+](=O)[O-])c2nc3ccc(OC)cc3c(N)c12	1.89 µM (inactive)	0.248 µM (active)	1.7 µM (inactive)	1.27 µM	1.7 µM (inactive)	1.34 µM (inactive)	1.27 µM (inactive)	0.43 µM (active)	1.67 µM (inactive)	1.78 µM (inactive)	1.22 µM (inactive)	1.68 µM (inactive)	1.44 µM (inactive)	1.67 µM (inactive)	0.262 µM (active)	0.191 µM (active)	1.67 µM (inactive)	1.43 µM (inactive)	0.394 µM (active)	0.811 µM (active)
COc1ccc(C[C@H]2COC(=O)[C@@H]2Cc2ccc(Br)cc2)cc1OC	34 µM (inactive)	18.9 µM (inactive)	7.19 µM (inactive)	17.3 µM	33.6 µM (inactive)	20.2 µM (inactive)	26.5 µM (inactive)	16.6 µM (inactive)	27.7 µM (inactive)	25.4 µM (inactive)	33.4 µM (inactive)	38.2 µM (inactive)	29.7 µM (inactive)	26.9 µM (inactive)	20.7 µM (inactive)	44.7 µM (inactive)	6.18 µM (inactive)	15.1 µM (inactive)	30.4 µM (inactive)	5.06 µM (inactive)
CC(C)CCCC(C)[C@H]1CC[C@H]2n3c(nnc3-c3ccccc3)CCC[C@]12C (some centres undefined)	14 µM (inactive)	3.49 µM (inactive)		13.8 µM	16 µM (inactive)	15.1 µM (inactive)	18.4 µM (inactive)	5.97 µM (inactive)	13.6 µM (inactive)	23.2 µM (inactive)	9.91 µM (inactive)	11.9 µM (inactive)	8.91 µM (inactive)	11.8 µM (inactive)	4.06 µM (inactive)	6.21 µM (inactive)	10.4 µM (inactive)		17.5 µM (inactive)	10.7 µM (inactive)
Nc1ncn(C2OC(COP(=O)(O)O)C(O)C2O)c(=O)n1 (centres undefined)	> 71.9 µM (inactive)	1.87 µM (inactive)	> 58.2 µM (inactive)	> 100 µM	> 77.4 µM (inactive)	> 100 µM (inactive)	> 100 µM (inactive)	> 71 µM (inactive)	> 100 µM (inactive)	> 81.8 µM (inactive)	52.8 µM (inactive)	> 100 µM (inactive)	63.5 µM (inactive)	> 100 µM (inactive)	> 91.6 µM (inactive)	> 100 µM (inactive)	> 91.2 µM (inactive)	54.6 µM (inactive)	> 100 µM (inactive)	> 100 µM (inactive)
Oc1cc(O)c2c(c1)O[C@H](c1cc(O)c(O)c(O)c1)[C@@H](O)C2 [GALLOCATECHIN]	43.7 µM (inactive)	19.5 µM (inactive)	24.8 µM (inactive)	40 µM	17.5 µM (inactive)	> 10 µM (inactive)	46.6 µM (inactive)	18.8 µM (inactive)	21.1 µM (inactive)	> 100 µM (inactive)	19.2 µM (inactive)	18 µM (inactive)	18.3 µM (inactive)	> 100 µM (inactive)	19.6 µM (inactive)	17.3 µM (inactive)	18.2 µM (inactive)	21.1 µM (inactive)		19.1 µM (inactive)
OCCCc1cc(O)c2c(c1)C(CO)C(c1ccc(O)c(O)c1)O2 (centres undefined)	> 100 µM (inactive)	> 100 µM (inactive)	> 100 µM (inactive)	> 100 µM	> 100 µM (inactive)	> 100 µM (inactive)	> 100 µM (inactive)	> 100 µM (inactive)	> 100 µM (inactive)	> 100 µM (inactive)	> 100 µM (inactive)	> 100 µM (inactive)	> 100 µM (inactive)	> 100 µM (inactive)	> 100 µM (inactive)	> 100 µM (inactive)	> 100 µM (inactive)	> 100 µM (inactive)	> 100 µM (inactive)	> 100 µM (inactive)
COC1CC(OC2C(C)OC(OC3C(C)OC(OC4C(C)OC(O[C@H]5CC[C@@]6(C)C(=CC[C@]7(O)[C@@H]6C[C@@H](OC(C)=O)[C@@]6(C)[C@]7(O)CC[C@@]6(O)C(C)=O)C5)CC4OC)CC3OC)CC2OC)OC(C)C1O (some centres undefined)	> 25 µM (inactive)	> 25 µM (inactive)	> 25 µM (inactive)	> 25 µM	> 25 µM (inactive)	> 25 µM (inactive)	> 25 µM (inactive)	> 25 µM (inactive)	> 25 µM (inactive)	> 25 µM (inactive)		> 25 µM (inactive)	> 25 µM (inactive)	> 25 µM (inactive)	> 25 µM (inactive)	> 25 µM (inactive)	> 25 µM (inactive)	> 25 µM (inactive)	> 25 µM (inactive)	> 25 µM (inactive)
COc1ccc(/C=C\c2cc(OC)c(OC)c(OC)c2)cc1OCC(=O)O	48.2 µM (inactive)	4.68 µM (inactive)	> 96.8 µM (inactive)	9.62 µM	8.36 µM (inactive)	9.89 µM (inactive)	2.93 µM (inactive)	36.6 µM (inactive)	2.15 µM (inactive)	4.78 µM (inactive)	4.43 µM (inactive)	3.64 µM (inactive)	9.18 µM (inactive)	4.18 µM (inactive)	3.89 µM (inactive)	3.78 µM (inactive)	7.13 µM (inactive)	10.2 µM (inactive)	> 100 µM (inactive)	4.45 µM (inactive)
Cn1c(=O)c2ccccc2[n+]2c(-c3cccc([N+](=O)[O-])c3)csc12	73.5 µM (inactive)	32.6 µM (inactive)	25.2 µM (inactive)		21.2 µM (inactive)	> 100 µM (inactive)	18.7 µM (inactive)	32.6 µM (inactive)	76.6 µM (inactive)	> 100 µM (inactive)	36.7 µM (inactive)	59.6 µM (inactive)	> 100 µM (inactive)	> 100 µM (inactive)	18.6 µM (inactive)	> 100 µM (inactive)	> 100 µM (inactive)	> 100 µM (inactive)	41.3 µM (inactive)	59.7 µM (inactive)
Cc1ccc(OCC2OC(n3cnc4c(Cl)nc(Nc5cc(Cl)cc(Cl)c5)nc43)CC2Oc2ccc(C)cc2)cc1 (centres undefined)	> 100 µM (inactive)	> 100 µM (inactive)	> 100 µM (inactive)	> 100 µM		> 100 µM (inactive)	> 100 µM (inactive)	> 100 µM (inactive)	> 100 µM (inactive)	> 100 µM (inactive)	> 100 µM (inactive)	> 100 µM (inactive)	> 100 µM (inactive)	> 100 µM (inactive)	> 100 µM (inactive)	> 100 µM (inactive)	> 100 µM (inactive)	> 100 µM (inactive)	> 100 µM (inactive)	> 100 µM (inactive)
COc1ccc(-c2c3c(n(C4OC(COC(C)=O)C(OC(C)=O)C(OC(C)=O)C4OC(C)=O)c(=S)c2C#N)CCC3)cc1 (centres undefined)	> 100 µM (inactive)	> 100 µM (inactive)		> 100 µM	> 100 µM (inactive)	6.82 µM (inactive)	> 100 µM (inactive)	> 100 µM (inactive)	> 100 µM (inactive)	> 100 µM (inactive)	> 100 µM (inactive)	> 100 µM (inactive)	71.4 µM (inactive)	> 100 µM (inactive)	> 100 µM (inactive)	> 100 µM (inactive)	81.3 µM (inactive)	> 100 µM (inactive)	> 100 µM (inactive)	38.8 µM (inactive)
O=C1CCN(CCC(F)(F)C(F)(F)C(F)(F)C(F)(F)C(F)(F)C(F)(F)F)C(=S)N1CCC(F)(F)C(F)(F)C(F)(F)C(F)(F)C(F)(F)C(F)(F)F	> 100 µM (inactive)	> 100 µM (inactive)	> 100 µM (inactive)		> 100 µM (inactive)	> 100 µM (inactive)	> 100 µM (inactive)	> 100 µM (inactive)	> 100 µM (inactive)	> 100 µM (inactive)	> 100 µM (inactive)	> 100 µM (inactive)	> 100 µM (inactive)	> 100 µM (inactive)	> 100 µM (inactive)	> 100 µM (inactive)	> 100 µM (inactive)	> 100 µM (inactive)	> 100 µM (inactive)	> 100 µM (inactive)
